Measurements taken from patent US7153869B2, “Substituted amino acids as erythropoietin mimetics” (priority 1998, dated 2006).
Like-named read-outs stand apart in the source and are kept apart here.

Molecular target: T1, EBP-Ig (N-terminal 225 amino acids of the human EPO receptor joined to an Ig heavy chain) (Homo sapiens, UniProt P19235)
T1 construct: Ig heavy chain (fusion partner); made in house; host or cells: NSO cells (secreted into conditioned media)
T1 sequence (P19235 25-250 limits assumed): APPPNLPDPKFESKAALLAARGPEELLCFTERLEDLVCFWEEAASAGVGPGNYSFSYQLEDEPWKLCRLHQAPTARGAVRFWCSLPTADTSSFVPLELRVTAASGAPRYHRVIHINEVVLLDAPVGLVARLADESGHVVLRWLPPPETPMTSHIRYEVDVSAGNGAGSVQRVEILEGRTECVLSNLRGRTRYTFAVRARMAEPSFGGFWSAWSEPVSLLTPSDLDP
Assay: Inhibition of [125I]EPO binding to immobilized EBP-Ig (EPO binding protein-Ig), scintillation Flash plate competition assay
Conditions: for IC30 μM (Inhibition of EPO binding to EBP-Ig): 0–500 μM test compound; for % inh @ 50 μM (Inhibition of EPO binding to EBP-Ig): 50 μM test compound, average % inhibition
Description: The interaction of biotin and streptavidin is frequently employed to capture and effectively immobilize reagents useful in assay protocols and has been employed here as a simple method to capture and immobilize EBP-Ig. EBP-Ig is initially randomly modified with an amine reactive derivative of biotin to produce biotinylated-EBP-Ig. Use of streptavidin coated plates allows the capture of the biotinylated EBP-Ig on the surface of a scintillant impregnated coated well (Flash plates, NEN-DuPont). […] The amount of light produced was quantified to estimate the amount of ligand binding. The specific assay format was suitable for the multi-well plate capacity of a Packard TopCount Microplate Scintillation counter.
Biotinylated EBP-Ig was prepared as follows. EBP-Ig (3 mL, OD280 2.9) was exchanged into 50 mM sodium bicarbonate, pH 8.5 using a Centriprep 10 ultrafiltration device. The final volume of the exchanged protein was 1.2 mL (OD280 2.6, representing about 2 mg total protein). 10 μL of a 4 mg/ml solution of NHS-LC-Biotin (Pierce) was added and the reaction mixture placed on ice in the dark for two hours. Unreacted biotin was removed by exchange of the reaction buffer into PBS in a Centriprep 10 device and the protein reagent aliquoted and stored at −70° C.
All wells were adjusted to a final DMSO concentration of 5%. […] After all additions were made, the plate was covered with an adhesive top seal and placed in the dark at room temperature overnight. The next day all liquid was aspirated from the wells to limit analyte dependent quench of the signal, and the plates were counted on a Packard TOPCOUNT Microplate Scintillation Counter. […] Corrected total binding (CTB) was calculated as: TB−NSB=CTB. […] Table 1 lists the average % inhibition, and if determined the IC50 and IC30 values for compounds of Formula I, where the compound numbers refer to the compounds in the tables accompanying the preparative examples.

[1] = read-out: % inh @ 50 μM (Inhibition of EPO binding to EBP-Ig)

N=C(N)NCCCC(C(=O)O)N(CC=Cc1cccs1)CC=Cc1cccs1 (centres unmarked) [compound 49]
EPO/EBP-Ig % inh @ 50 μM (Table 3, 50 μM): 1%

O=C(O)CCC(C(=O)O)N(CC=Cc1cccs1)CC=Cc1cccs1 (centres unmarked) [compound 52]
EPO/EBP-Ig % inh @ 50 μM (Table 3, 50 μM): 21%

O=C(O)CC(C(=O)O)N(CC=Cc1cccs1)CC=Cc1cccs1 (centres unmarked) [compound 53]
EPO/EBP-Ig % inh @ 50 μM (Table 3, 50 μM): 14%

CC(C(=O)O)N(CC=Cc1cccs1)CC=Cc1cccs1 (centres unmarked) [compound 54]
EPO/EBP-Ig % inh @ 50 μM (Table 3, 50 μM): 18%

NC(=O)CCC(C(=O)O)N(CC=Cc1cccs1)CC=Cc1cccs1 (centres unmarked) [compound 55]
EPO/EBP-Ig % inh @ 50 μM (Table 3, 50 μM): 4%

O=C(NCCCCC(C(=O)OCc1ccccc1)N(CC=Cc1cccs1)CC=Cc1cccs1)OCc1ccccc1 (centres unmarked) [compound 57]
EPO/EBP-Ig % inh @ 50 μM (Table 3, 50 μM): 0%

COC(=O)C(CCC(=O)OC(C)(C)C)N(CC=Cc1cccs1)CC=Cc1cccs1 (centres unmarked) [compound 59]
EPO/EBP-Ig % inh @ 50 μM (Table 3, 50 μM): 26%

CCOC(=O)CCC(C(=O)OC)N(C/C=C/c1cccs1)C/C=C/c1cccs1 (centres unmarked) [compound 60]
EPO/EBP-Ig % inh @ 50 μM (Table 3, 50 μM): 9%

COC(=O)C(CCC(=O)O)N(C/C=C/c1cccs1)C/C=C/c1cccs1 (centres unmarked) [compound 61]
EPO/EBP-Ig % inh @ 50 μM (Table 3, 50 μM): 14%

O=C(O)CC(C(=O)O)N(Cc1cccc(NCc2ccccc2)c1)Cc1cccc(Oc2ccccc2)c1 (centres unmarked) [compound 63]
EPO/EBP-Ig % inh @ 50 μM (Table 4, 50 μM): 20%

Cc1ccc(S(=O)(=O)Nc2cccc(CN(Cc3cccc(NS(=O)(=O)c4ccc(C)cc4)c3)C(CC(=O)O)C(=O)O)c2)cc1 (centres unmarked) [compound 65]
EPO/EBP-Ig % inh @ 50 μM (Table 4, 50 μM): −7%

O=C(O)CC(C(=O)O)N(Cc1cccc(NCc2cccc(Cl)c2)c1)Cc1cccc(Oc2ccccc2)c1 (centres unmarked) [compound 66]
EPO/EBP-Ig % inh @ 50 μM (Table 4, 50 μM): −16%

O=C(O)CC(C(=O)O)N(Cc1cccc(NCc2cccc(Br)c2)c1)Cc1cccc(Oc2ccccc2)c1 (centres unmarked) [compound 67]
EPO/EBP-Ig % inh @ 50 μM (Table 4, 50 μM): −8%

O=C(O)CC(C(=O)O)N(Cc1cccc(NCc2ccccc2F)c1)Cc1cccc(Oc2ccccc2)c1 (centres unmarked) [compound 68]
EPO/EBP-Ig % inh @ 50 μM (Table 4, 50 μM): −13%

Cc1ccccc1CNc1cccc(CN(Cc2cccc(Oc3ccccc3)c2)C(CC(=O)O)C(=O)O)c1 (centres unmarked) [compound 69]
EPO/EBP-Ig % inh @ 50 μM (Table 4, 50 μM): −13%

O=C(O)CC(C(=O)O)N(Cc1cccc(NCc2ccc(F)cc2)c1)Cc1cccc(Oc2ccccc2)c1 (centres unmarked) [compound 70]
EPO/EBP-Ig % inh @ 50 μM (Table 4, 50 μM): −8%

Cc1ccc(Oc2cccc(CN(Cc3cccc(NCc4cccc(Cl)c4)c3)C(CC(=O)O)C(=O)O)c2)cc1 (centres unmarked) [compound 71]
EPO/EBP-Ig % inh @ 50 μM (Table 4, 50 μM): −6%

Cc1ccc(Oc2cccc(CN(Cc3cccc(NCc4c(F)c(F)c(F)c(F)c4F)c3)C(CC(=O)O)C(=O)O)c2)cc1 (centres unmarked) [compound 72]
EPO/EBP-Ig % inh @ 50 μM (Table 4, 50 μM): −14%

Cc1ccc(Oc2cccc(CN(Cc3cccc(NCc4ccccc4F)c3)C(CC(=O)O)C(=O)O)c2)cc1 (centres unmarked) [compound 73]
EPO/EBP-Ig % inh @ 50 μM (Table 4, 50 μM): −13%

Cc1ccc(Oc2cccc(CN(Cc3cccc(NCc4cccc(C#N)c4)c3)C(CC(=O)O)C(=O)O)c2)cc1 (centres unmarked) [compound 74]
EPO/EBP-Ig % inh @ 50 μM (Table 4, 50 μM): −7%

Cc1ccc(Oc2cccc(CN(Cc3cccc(NCc4ccccc4)c3)C(CC(=O)O)C(=O)O)c2)cc1 (centres unmarked) [compound 75]
EPO/EBP-Ig % inh @ 50 μM (Table 4, 50 μM): −2%

CC(C)(C)OC(=O)CC(C(=O)OC(C)(C)C)N(C/C=C/c1cccc(Oc2ccccc2)c1)Cc1cccc(Oc2ccccc2)c1 (centres unmarked) [compound 76]
EPO/EBP-Ig % inh @ 50 μM (Table 5, 50 μM): 25%

O=C(O)CC(C(=O)O)N(C/C=C/c1cccc(Oc2ccccc2)c1)Cc1cccc(Oc2ccccc2)c1 (centres unmarked) [compound 77]
IC50: 40 µM
IC30 μM (Inhibition of EPO binding to EBP-Ig) (0.5 nM [125I]EPO): 30 µM
inhibition at 50 µM [1]: 52%
inhibition at 50 µM (read-out: EPO/EBP-Ig % inh @ 50 μM, Table 5, 50 μM): 52%

COc1ccc(C(=O)Nc2ccc(/C=C/CN(Cc3ccc(OCc4ccccc4)cc3)C(CCC(=O)O)C(=O)O)cc2)cc1 (centres unmarked) [compound 82]
% inh @ 50 μM (Inhibition of EPO binding to EBP-Ig) (0.5 nM [125I]EPO): 32%
EPO/EBP-Ig % inh @ 50 μM (Table 5, 50 μM): 32%

O=C(O)CCCC(=O)Nc1ccc(/C=C/CN(Cc2ccc(OCc3ccccc3)cc2)C(CCC(=O)O)C(=O)O)cc1 (centres unmarked) [compound 83]
EPO/EBP-Ig % inh @ 50 μM (Table 5, 50 μM): 18%

O=C(O)CCC(C(=O)O)N(C/C=C/c1ccc(NC(=O)C(F)(F)C(F)(F)F)cc1)Cc1ccc(OCc2ccccc2)cc1 (centres unmarked) [compound 84]
EPO/EBP-Ig % inh @ 50 μM (Table 5, 50 μM): 14%

O=C(O)CCC(C(=O)O)N(C/C=C/c1ccc(NC(=O)C(F)(F)F)cc1)Cc1ccc(OCc2ccccc2)cc1 (centres unmarked) [compound 85]
EPO/EBP-Ig % inh @ 50 μM (Table 5, 50 μM): 20%

O=C(O)CCC(C(=O)O)N(C/C=C/c1ccc(NC(=O)c2ccncc2)cc1)Cc1ccc(OCc2ccccc2)cc1 (centres unmarked) [compound 86]
% inh @ 50 μM (Inhibition of EPO binding to EBP-Ig) (0.5 nM [125I]EPO): 37%
EPO/EBP-Ig % inh @ 50 μM (Table 5, 50 μM): 37%

Cc1ccc(S(=O)(=O)Nc2ccc(/C=C/CN(Cc3ccc(OCc4ccccc4)cc3)C(CCC(=O)O)C(=O)O)cc2)cc1 (centres unmarked) [compound 87]
EPO/EBP-Ig % inh @ 50 μM (Table 5, 50 μM): 23%

O=C(O)CCC(C(=O)O)N(C/C=C/c1ccc(NC(=O)CC2(CC(=O)O)CCCC2)cc1)Cc1ccc(OCc2ccccc2)cc1 (centres unmarked) [compound 88]
EPO/EBP-Ig % inh @ 50 μM (Table 5, 50 μM): 10.3%

O=C(O)CCC(C(=O)O)N(C/C=C/c1ccc(NC(=O)Oc2ccccc2)cc1)Cc1ccc(OCc2ccccc2)cc1 (centres unmarked) [compound 89]
EPO/EBP-Ig % inh @ 50 μM (Table 5, 50 μM): 22%

O=C(O)CCC(C(=O)O)N(C/C=C/c1ccc(NC(=O)c2ccc(-c3ccccc3)cc2)cc1)Cc1ccc(OCc2ccccc2)cc1 (centres unmarked) [compound 90]
EPO/EBP-Ig % inh @ 50 μM (Table 5, 50 μM): 29%

O=C(O)CCC(C(=O)O)N(C/C=C/c1ccc(NC(=O)c2ccc([N+](=O)[O-])cc2)cc1)Cc1ccc(OCc2ccccc2)cc1 (centres unmarked) [compound 91]
EPO/EBP-Ig % inh @ 50 μM (Table 5, 50 μM): 19%

COC(=O)C(CCC(=O)O)N(C/C=C/c1ccccc1)C/C=C/c1ccccc1 (centres unmarked) [compound 92]
EPO/EBP-Ig % inh @ 50 μM (Table 6, 50 μM): 20%

COC(=O)C(CCC(=O)OC(C)(C)C)N(C/C=C/c1ccccc1)C/C=C/c1ccccc1 (centres unmarked) [compound 93]
EPO/EBP-Ig % inh @ 50 μM (Table 6, 50 μM): 20%

CCOC(=O)CCC(C(=O)OC)N(C/C=C/c1ccccc1)C/C=C/c1ccccc1 (centres unmarked) [compound 94]
EPO/EBP-Ig % inh @ 50 μM (Table 6, 50 μM): 25%

COC(=O)C(CCC(=O)OC(C)(C)C)N(C/C=C/c1cccc2ccccc12)C/C=C/c1cccc2ccccc12 (centres unmarked) [compound 95]
EPO/EBP-Ig % inh @ 50 μM (Table 6, 50 μM): 15%

CC(C)(C)OC(=O)CCC(C(=O)O)N(C/C=C/c1ccc2ccccc2c1)C/C=C/c1ccc2ccccc2c1 (centres unmarked) [compound 97]
EPO/EBP-Ig % inh @ 50 μM (Table 6, 50 μM): 14%

COC(=O)C(CCC(=O)OC(C)(C)C)N(C/C=C/c1cccc(Oc2ccc(Cl)c(Cl)c2)c1)C/C=C/c1cccc(Oc2ccc(Cl)c(Cl)c2)c1 (centres unmarked) [compound 99]
EPO/EBP-Ig % inh @ 50 μM (Table 6, 50 μM): 13%

COC(=O)C(CCC(=O)O)N(C/C=C/c1cccc(Oc2ccc(Cl)c(Cl)c2)c1)C/C=C/c1cccc(Oc2ccc(Cl)c(Cl)c2)c1 (centres unmarked) [compound 101]
% inh @ 50 μM (Inhibition of EPO binding to EBP-Ig) (0.5 nM [125I]EPO): 32%
EPO/EBP-Ig % inh @ 50 μM (Table 6, 50 μM): 32%

CC(C)(C)OC(=O)CCC(C(=O)OC(C)(C)C)N(C/C=C/c1cccc(Oc2ccc(C(C)(C)C)cc2)c1)C/C=C/c1cccc(Oc2ccc(C(C)(C)C)cc2)c1 (centres unmarked) [compound 102]
EPO/EBP-Ig % inh @ 50 μM (Table 6, 50 μM): 5%

CC(C)(C)OC(=O)CCC(C(=O)OC(C)(C)C)N(C/C=C/c1cccc(Oc2cccc(C(F)(F)F)c2)c1)C/C=C/c1cccc(Oc2cccc(C(F)(F)F)c2)c1 (centres unmarked) [compound 103]
EPO/EBP-Ig % inh @ 50 μM (Table 6, 50 μM): 17%

CC(C)(C)c1ccc(Oc2cccc(/C=C/CN(C/C=C/c3cccc(Oc4ccc(C(C)(C)C)cc4)c3)C(CCC(=O)O)C(=O)O)c2)cc1 (centres unmarked) [compound 104]
IC30 μM (Inhibition of EPO binding to EBP-Ig) (0.5 nM [125I]EPO): 10 µM
% inh @ 50 μM (Inhibition of EPO binding to EBP-Ig) (0.5 nM [125I]EPO): 78%
EPO/EBP-Ig % inh @ 50 μM (Table 6, 50 μM): 78%
IC50 (read-out: IC50, μM (Inhibition of EPO binding to EBP-Ig), 0.5 nM [125I]EPO, concentration reducing corrected total binding to 50%): 30 µM

O=C(O)CCC(C(=O)O)N(C/C=C/c1cccc(Oc2cccc(C(F)(F)F)c2)c1)C/C=C/c1cccc(Oc2cccc(C(F)(F)F)c2)c1 (centres unmarked) [compound 105]
IC50: 35 µM
IC30 μM (Inhibition of EPO binding to EBP-Ig) (0.5 nM [125I]EPO): 25 µM
inhibition at 50 µM [1]: 70%
inhibition at 50 µM (read-out: EPO/EBP-Ig % inh @ 50 μM, Table 6, 50 μM): 70%
